Values quoted from earlier work as cited in patent publication US10730918B2, “Trap 63” (STRAUMANN HOLDING AG, priority 2013, dated 2020).

System: cementoblasts
Details: Boabaid et al 2004

Molecule | effect on cell proliferation | number of cementoblasts in cell culture
LRAP: leucine-rich amelogenin polypeptide; SEQ ID NO: 4 identical to sequence in Boabaid et al 2004 (MPLPPHPGHPGYINFSYEVLTPLKWYQNMIRHPSLLPDLPLEAWPATDKTKREEVD; sus scrofa domesticus) | not to have any effect | decreased
full length amelogenin: full length amelogenin, major constituent of the enamel matrix (protein, UniProt Q99217 1-191, looked up, full-length, full length amelogenin, major constituent of the enamel matrix) MGTWILFACLLGAAFAMPLPPHPGHPGYINFSYEVLTPLKWYQSIRPPYPSYGYEPMGGWLHHQIIPVLSQQHPPTHTLQPHHHIPVVPAQQPVIPQQPMMPVPGQHSMTPIQHHQPNLPPPAQQPYQPQPVQPQPHQPMQPQPPVHPMQPLPPQPPLPPMFPMQPLPPMLPDLTLEAWPSTDKTKREEVD | no reported effect | 
